We go through 3 compounds from patent US20220213174A1, “IVIG TREATMENTS FOR SUDDEN SONSORINEURAL HEARING LOSS” (InnoMed Technologies, Inc., priority 2021, published 2022).

Test [1] relates to Hearing Loss, including Sudden Sensorineural Healing Loss. The settings on record: prednisolone 60 mg per day for 5 days then reduced, or 50 mg per day for 10 days; cited from earlier work.
For test [2], the system named is Sudden Sensorineural Healing Loss. Nature of the test: Example 1: treatment of a patient suffering from hearing loss. Format: in vivo, human. The conditions noted are these: person; 60 mg/day prednisone therapy alone; two weeks. As for the experimental part: The patient, a person was diagnosed by their doctor after claiming they are suffering from unexplained hearing loss. The patient's doctor diagnosed the patient as suffering from Sudden Sensorineural Healing Loss. […] Two weeks after administration, the patient is co-administered a single dose of IVIG at 2 g/kg and 60 mg prednisone and Sudden Sensorineural Healing Loss related symptoms […].

Test [3] has as its system Sudden Sensorineural Hearing Loss. The test is described as follows: Example 2: treatment of a patient suffering from hearing loss. Format: in vivo, human. The conditions noted are these: person; 60 mg/day prednisone therapy alone for a month. As for the experimental part:
The patient, a person is diagnosed by their doctor as suffering from Sudden Sensorineural Hearing Loss. […] The patient is then administered IVIG at 2 g/kg and 60 mg prednisone. Within three weeks, the Sudden Sensorineural Hearing Loss is resolved by about 80%. The patient is then administered a second dose of IVIG at 2 g/kg and 60 mg. prednisone. Within two weeks, the patient is resolved by about 95%. A week later, the patient's Sudden Sensorineural Hearing Loss symptoms have disappeared and the patient presents as normal.

Take `C[C@]12C=CC(=O)C=C1CC[C@@H]1[C@@H]2[C@@H](O)C[C@@]2(C)[C@H]1CC[C@]2(O)C(=O)CO` [prednisolone]: the “outcome and time to complete recovery in patients with Hearing Loss” value in test [1] is recorded as “improves outcome”.

As for `C[C@]12C=CC(=O)C=C1CC[C@@H]1[C@@H]2C(=O)C[C@@]2(C)[C@H]1CC[C@]2(O)C(=O)CO` [prednisone], in test [2], the “reduction in the symptoms they suffer” value is “no reduction”. Moreover, the “resolution of Sudden Sensorineural Hearing Loss” value in test [3] is reported as “did not resolve”. As to methylprednisone, the “outcome and time to complete recovery in patients with Hearing Loss” value in test [1] is “improves outcome”.
